One data set in a line: physchem. It counts as physicochemical.
The next data set deals with Fusarium graminearum. In words: microbe, parasite or virus in culture. It counts as cell-based. The conditions noted are these: 168 h, read-out: activity in the inhibition of DON/AcDON production.
The next data set concerns Fusarium proliferatum. The experiment in a line: Production of fumonisin FB1 by Fusarium proliferatum (microtitre plates). It counts as cell-based. The conditions noted are these: 120 h, 5 days, 20° C., HPLC-MS/MS.

Marks after values point to notes of the source that are not given here.

`CCc1nc(-c2ccc(F)cc2)c(-c2ccnc(NC(=O)C(C)C)c2)s1` [compound 82]: the results for the log p in “physchem” (pH 2.7) and in “physchem” (pH 7.8) were 3.52^[b] and 3.66^[c];, respectively. For `CCc1nc(-c2ccc(F)cc2)c(-c2ccnc(C)c2)s1` [Ex. 96, 4-[2-Ethyl-4-(4-fluorophenyl)-1,3-thiazol-5-yl]-2-methylpyridine], in “physchem” (pH 2.7), the chromatographic logP was 1.68. For the compound `CCc1nc(-c2ccc(F)cc2)c(-c2ccnc(N(S(C)(=O)=O)S(C)(=O)=O)c2)s1` [compound 92], the log p was 3.23^[b] in the data set “physchem” (pH 2.7) and 3.24^[c]; in the data set “physchem” (pH 7.8). For the compound `CCc1nc(-c2ccc(F)cc2)c(-c2ccnc(NC(=O)c3ccsc3)c2)s1` [compound 57], the log p in “physchem” (pH 2.7) is 3.83^[b].

Regarding `C=C(C)C(=O)Nc1cc(-c2sc(CC)nc2-c2ccc(F)cc2)ccn1` [compound 90], the log p is 3.6^[b] in the data set “physchem” (pH 2.7) and 3.71^[c]; in the data set “physchem” (pH 7.8). On to `CCc1nc(-c2ccc(F)cc2)c(-c2ccnc(NC(=O)C(C)(C)C)c2)s1` [compound 51], for which the log p in “physchem” (pH 2.7) is 4.18^[b].

For the compound `CC(C)(C)c1nc(-c2ccc(F)cc2)c(-c2ccncc2)s1` [compound 46], in the data set “physchem” (pH 2.7), the log p was 3.29^[b]. As to `Cc1cc(-c2sc(C(C)C)nc2-c2ccc(F)cc2)ccn1` [Ex. 100, 4-[4-(4-Fluorophenyl)-2-isopropyl-1,3-thiazol-5-yl]-2-methylpyridine], the chromatographic logP came to 2.1 in “physchem” (pH 2.7) and 4.06 in “physchem” (pH 7.8).

For `CCc1nc(-c2ccc(F)cc2)c(-c2ccnc(NC(=O)COC)c2)s1` [compound 81], the log p in the data set “physchem” (pH 2.7) was 3.17^[b]; in the data set “physchem” (pH 7.8) it was 3.21^[c];.

For the compound `CCc1nc(-c2cccc(C(F)(F)F)c2)c(-c2ccncc2)s1` [compound 49], the log p in “physchem” (pH 2.7) is 3^[b]. Take `CCc1nc(-c2ccc(F)cc2)c(-c2ccnc(N(C(C)=O)C3CC3)c2)s1` [Ex. 80, N-Cyclopropyl-N-{4-[2-ethyl-4-(4-fluorophenyl)-1,3-thiazol-5-yl]pyridin-2-yl}acetamide]: the chromatographic logP in “physchem” (pH 2.7) came out at 2.81; in “physchem” (pH 7.8) it was 2.88.

For the compound `CC(C)c1nc(-c2ccc(F)cc2)c(-c2ccncc2)s1` [compound 43], the log p in the data set “physchem” (pH 2.7) was 2.56^[b]; in the data set “physchem” (pH 7.8) it was 3.71^[c];. Take `CCc1nc(-c2ccc(F)cc2)c(-c2ccnc(NC(=O)c3ccc(C)cc3)c2)s1` [compound 50]: the log p in “physchem” (pH 2.7) is 4.48^[b].

As for `CCc1nc(-c2ccc(F)cc2)c(-c2ccnc(NC3CCCC3)c2)s1` [compound 63], in the data set “physchem” (pH 2.7), the log p was 1.94^[b].

Take `CCc1nc(-c2ccc(F)cc2)c(-c2ccnc(NC(=O)OC(C)(C)C)c2)s1` [compound 65]: in “physchem” (pH 2.7), the log p is 4.63^[b]. As to `CCOC(=O)Nc1cc(-c2sc(CC)nc2-c2ccc(F)cc2)ccn1` [compound 85], the values for the log p in the data set “physchem” (pH 2.7) and in “physchem” (pH 7.8) were 3.61^[b] and 3.69^[c];, respectively. The matching figures for `CCc1nc(-c2ccc(F)cc2)c(-c2ccnc(NCC(F)F)c2)s1` [compound 79]: 2.39^[b] and 3.76^[c];.

`CCc1nc(-c2ccc(F)cc2)c(-c2ccnc(NCCc3ccccc3)c2)s1` [compound 62]: the log p in “physchem” (pH 2.7) is 2.17^[b]. As for `CCc1nc(-c2ccc(F)cc2)c(-c2ccnc(Nc3ccccc3)c2)s1` [compound 60], the log p in “physchem” (pH 2.7) is 3.1^[b].

`CCNc1cc(-c2sc(CC)nc2-c2ccc(F)cc2)ccn1` [compound 76]: the log p in “physchem” (pH 2.7) is 1.54^[b]; in “physchem” (pH 7.8), 3.64^[c];.

Consider `CCc1nc(-c2ccc(F)cc2)c(-c2ccnc(NC(=O)C3CCC3)c2)s1` [compound 84], for which the log p in “physchem” (pH 2.7) was 3.68^[b]; in “physchem” (pH 7.8), 3.82^[c];. The like results for `CCc1nc(-c2ccc(F)cc2)c(-c2ccnc(C(=O)N(C)CC)c2)s1` [compound 73] were, in that order, 2.81^[b] and 2.87^[c];. Take `CCc1nc(-c2ccc(F)cc2)c(-c2ccnc(N(C)C(=O)c3ccccc3)c2)s1` [compound 67]: the log p in “physchem” (pH 2.7) was 3.68^[b]. Regarding `CCc1nc(-c2ccc(F)cc2)c(-c2ccnc(C(=O)NC3CC3)c2)s1` [Ex. 75, N-Cyclopropyl-4-[2-ethyl-4-(4-fluorophenyl)-1,3-thiazol-5-yl]pryridine-2-carboxamide], the log p in the data set “physchem” (pH 2.7) is 3.46^[b]; in the data set “physchem” (pH 7.8), 3.5^[c];. `CCc1nc(-c2ccc(F)cc2)c(-c2ccnc(NC(=O)c3ccc(F)cc3)c2)s1` [compound 52]: the log p in “physchem” (pH 2.7) was 4.18^[b].

With `C=CCNc1cc(-c2sc(CC)nc2-c2ccc(F)cc2)ccn1` [compound 74], the log p is 1.67^[b] in the data set “physchem” (pH 2.7) and 3.8^[c]; in the data set “physchem” (pH 7.8). Take `CCc1nc(-c2ccc(F)cc2)c(-c2ccnc(NC(=O)c3cccs3)c2)s1` [compound 56]: the log p in the data set “physchem” (pH 2.7) is 3.92^[b]. For `CCc1nc(-c2ccc(F)cc2)c(-c2ccncc2)s1` [Ex. 41, 4-[2-Ethyl-4-(4-fluorophenyl)-1,3-thiazol-5-yl]pyridine], the chromatographic logP in the data set “physchem” (pH 2.3) is 2.01; in the data set “physchem” (pH 7.8) it was 2.89. In addition, the inhibition at 50 µM with Fusarium graminearum and in the data set with Fusarium proliferatum was over 70% each time. On to `CCc1nc(-c2ccc(F)cc2)c(-c2ccnc(Cl)c2)s1` [Ex. 58, 2-Chloro-4-[2-ethyl-4-(4-fluorophenyl)-1,3-thiazol-5-yl]pyridine], for which the chromatographic logP in “physchem” (pH 2.7) stood at 4.07; in “physchem” (pH 7.8), 4.1.

Take `CCc1nc(-c2ccc(F)cc2)c(-c2ccnc(N(C)C(C)=O)c2)s1` [compound 68]: the log p in the data set “physchem” (pH 2.7) was 2.71^[b]. `CCCC(=O)Nc1cc(-c2sc(CC)nc2-c2ccc(F)cc2)ccn1` [Ex. 83, N-{4-[2-Ethyl-4-(4-fluorophenyl)-1,3-thiazol-5-yl]pyridin-2-}butanamide]: the log p was 3.45^[b] in “physchem” (pH 2.7) and 3.58^[c]; in the data set “physchem” (pH 7.8). The matching figures for `Fc1ccc(-c2nc(C(F)F)sc2-c2ccncc2)cc1` [compound 88]: 2.48^[b] and 3.01^[c];. The matching figures for `CCc1nc(-c2ccc(F)cc2)c(-c2ccnc(NC(=O)C3CC3)c2)s1` [compound 86]: 3.22^[b] and 3.37^[c];. Consider `CCCCc1nc(-c2ccc(F)cc2)c(-c2ccnc(NC(=O)c3ccccc3)c2)s1` [compound 66], for which, in the data set “physchem” (pH 2.7), the log p is 5.07^[b]. `CCc1nc(-c2ccc(F)cc2)c(-c2ccnc(NS(C)(=O)=O)c2)s1` [compound 91]: the log p in the data set “physchem” (pH 2.7) is 2.36^[b]; in “physchem” (pH 7.8), 2.18^[c];. In turn, `O=C(c1ccc(Cl)s1)C(Br)c1ccncc1` (stereo not drawn) [2-Bromo-1-(5-chloro-2-thienyl)-2-(pyridin-4-yl)ethanone] had a chromatographic logP in “physchem” (pH 2.7) of 2.18.

As for `CCc1nc(-c2ccc(F)cc2)c(-c2ccnc(NC(C)c3ccccc3)c2)s1` (stereo not drawn) [compound 61], the log p in “physchem” (pH 2.7) is 2.39^[b].

As for `CCc1nc(-c2ccc(F)cc2)c(-c2ccnc(NCC(C)OC)c2)s1` (stereo not drawn) [compound 78], the log p in “physchem” (pH 2.7) was 1.73^[b]; in “physchem” (pH 7.8), 3.67^[c];.

Regarding `C#CCN(C(C)=O)c1cc(-c2sc(CC)nc2-c2ccc(F)cc2)ccn1` [compound 102], the log p in “physchem” (pH 2.7) is 3.03^[b]; in the data set “physchem” (pH 7.8), 3.02^[c];. The like results for `CCc1nc(-c2ccc(F)cc2)c(-c2ccnc(N(C(C)=O)C(C)=O)c2)s1` [compound 97] were, in that order, 2.95^[b] and 2.95^[c];. As for `Fc1ccc(-c2nc(Cc3ccccc3)sc2-c2ccncc2)cc1` [compound 45], the log p in the data set “physchem” (pH 2.7) was 2.94^[b].

As usually defined, the chromatographic logP is a lipophilicity value derived from retention on a column. A low value points to lower lipophilicity.

The record behind these values is patent publication US9198426B2, “Use of 5 pyridin-4-yl-1,3-thiazoles for controlling phytopathogenic fungi” (Bayer Intellectual Property GmbH, priority 2008, dated 2015).
